Source: US20100298141A1, “SUBSTITUTED PYRIDINE N-OXIDE HERBICIDES” (E. I. DU PONT DE NEMOURS AND COMPANY, priority 2007, published 2010)

Test system: Russian thistle
Test: Test C pre-/postemergence test
Assay type: in vivo, Salsola kali
Source text: Seeds of plant species selected from blackgrass (Alopecurus myosuroides), downy brome (Bromus tectorum), green foxtail (Setaria viridis), Italian ryegrass (Lolium multiflorum), wheat (Triticum aestivum), wild oat (Avena fatua), catchweed bedstraw (Galium aparine), Russian thistle (Salsola kali), […] (Cynodon dactylon), Surinam grass (Brachiaria decumbens), cocklebur (Xanthium strumarium), corn (Zea mays), crabgrass (Digitaria sanguinalis), woolly cupgrass (Eriochloa villosa), giant foxtail (Setaria faberii), Goosegrass (Eleusin indica), johnsongrass (Sorghum halepense), kochia (Kochia scoparia), lambsquarters (Chenopodium album), morningglory (Ipomoea coccinea), eastern black nightshade (Solanum ptycanthum), yellow nutsedge (Cyperus esculentus), pigweed (Amaranthus retroflexus), common ragweed (Ambrosia elation), soybean (Glycine max), common (oilseed) sunflower (Helianthus annuus), and velvetleaf (Abutilon theophrasti) were planted and treated preemergence with test chemicals formulated in a non-phytotoxic solvent mixture which included a surfactant. At the same time, plants selected from these crop and weed species and also winter barley (Hordeum vulgare), canarygrass (Phalaris minor), and chickweed (Stellaria media) were treated with postemergence applications of some of the test chemicals formulated in the same manner. Plants ranged in height from 2 to 18 cm (1- to 4-leaf stage) for postemergence treatments. […] At time of treatment, test pots were flooded to 3 cm above the soil surface, treated by application of test compounds directly to the paddy water, and then maintained at that water depth for the duration of the test. […] A dash (-) response means no test result.

| Compound | Russian Thistle plant response rating (31 g ai/ha, Preemergence, scale 0 to 100) | Russian Thistle plant response rating (62 g ai/ha, preemergence, scale 0 (no effect) to 100 (complete control)) | Plant response rating (0 to 100), Russian Thistle (Preemergence, 250 g ai/ha) | Russian Thistle plant response rating (preemergence, 125 g ai/ha, scale 0 (no effect) to 100 (complete control)) | Russian Thistle plant response rating (62 g ai/ha, Preemergence, scale 0 to 100) |
| --- | --- | --- | --- | --- | --- |
| Cc1cc[n+]([O-])c(S(=O)(=O)C(C)c2c(C(F)(F)F)nn(C)c2Cl)c1 (racemic) [Compound 14] | 80 | 100 | 100 | 100 | – |
| Cn1nc(C(F)(F)F)c(C[S+]([O-])c2cc(C(C)(C)C)cc[n+]2[O-])c1OC(F)F (racemic) [Compound 24] | – | – | – | – | 0 |
